{"source": "patent US10561638B2", "about": "“Methods for treating dependence” (Biotie Therapies, Inc., priority 2007, dated 2020)", "key": {"[1]": {"system": "spontaneous hypertensive rats", "assay": "SCH-23390 pretreatment study in restrained SHRs", "type": "in vivo", "conditions": "nepicastat 10 mg/kg po", "description": "Male, spontaneous hypertensive rats (280-345 g; Charles River Labs, Kingston, N.Y.) were fasted overnight then anesthetized with ether. A femoral artery and femoral vein were cannulated with PE50 tubing for recording of blood pressure and administration of compounds, respectively. Animals were then placed in MAYO restrainers and their feet loosely taped to the restrainer. Heparinized saline (50 units sodium heparin/ml) was used to maintain patency of each cannula throughout the experiment. The following parameters were continuously recorded using Modular Instruments MI^2 BioReport™ software installed on an IBM personal computer: mean arterial pressure (MAP), heart rate (HR), and the change from baseline for each parameter at specified time points in the experiment.\nAll compounds were dissolved on the day of use. Nepicastat was dissolved in deionized water (vehicle) to a free base concentration of 1 mg/ml. Oral dosing volume for nepicastat or vehicle was 10 ml/kg. SCH-23390 was dissolved in saline (vehicle) to a free base concentration of 0.2 mg/ml. […] or saline were administered intravenously as a bolus in a volume of 1.0 ml/kg followed by 0.2 ml flush of isotonic saline.\nFollowing surgical preparation, each animal was allowed a minimum one hour recovery period. Animals were randomly assigned to four treatment groups: vehicle (iv)/vehicle (po); vehicle (iv)/nepicastat (po); SCH-23390 (iv)/vehicle (po); or SCH-23390 (iv)/nepicastat (po). Once animals were stabilized (minimum one hour), baseline blood pressure and heart rate was determined by taking an average of each parameter over a 15 min period of time. Once baseline blood pressure and heart rate were established, animals were dosed intravenously with either SCH-23390 (200 μg/kg) or vehicle (saline, 1 ml/kg). Fifteen minutes later, animals were orally dosed with either nepicastat (10 mg/kg) or vehicle (deionized water, 10 ml/kg).\nRecorded parameters were measured 15 min prior to intravenous dosing to establish baseline blood pressure and heart rate. Recorded parameters were then measured at 5, 10, and 15 min following intravenous administration of SCH-23390 or vehicle. Following oral administration of nepicastat or vehicle, recorded parameters were measured at 15, 30, 60, 90, 120, 150, 180, 210, and 240 min.\nAt the end of the experiment, each animal was anesthetized with halothane and euthanized via decapitation. The cortex, left ventricle (apex), and mesenteric artery were dissected out, weighed, and fixed in 0.4 M perchloric acid. Tissues were then frozen in liquid nitrogen and stored at −70° C. Biochemical analysis are performed on these tissues at a later date to determine catecholamine levels including dopamine and norepinephrine levels. Blood pressure and heart rate were analyzed separately. The change from baseline for blood pressure and heart rate were analyzed by an analysis of variance (ANOVA) with effects for treatment, time, and their interaction. This analysis was performed both for the post-iv time period and for the post-oral time period. Further analyses were performed at each time by an ANOVA with a main effect for […]. Pairwise comparisons were performed following each ANOVA by Fisher's LSD strategy with a Bonferroni correction when the overall treatment effect was not significant.\nAn additional analysis was performed to compare the baseline means of each treatment group by an ANOVA with a main effect for treatment and subsequent pairwise comparisons. […]"}, "[2]": {"system": "tissue norepinephrine and dopamine levels", "assay": "Tissue catecholamines in SHRs after single dose (dose response, time course)", "type": "in vivo, spontaneously hypertensive rats", "conditions": "for dose with significant change in dopamine/norepinephrine ratio: 6 h after single oral dose", "procedure": "Significant changes in these parameters were also observed in the left ventricle of male Sprague-Dawley rats 6 hours after the second of two i.v. injections (15 mg/kg) given 12 hours apart. The 24 hour time course of tissue catecholamines was studied in male SHRs following oral administration of either 10 or 30 mg/kg, respectively. The increase in the dopamine/norepinephrine ratio was significant at 1 hour, and was long lasting (12 hours at 10 mg/kg, mesenteric artery, and 24 hours at 30 mg/kg, left ventricle).\nIn SHRs there were significant changes in the dopamine/norepinephrine ratio in the mesenteric artery at doses of 0.3 mg/kg, in the left ventricle at 3.0 mg/kg, and in the cerebral cortex at 10 mg/kg. […] In a second dose-response study in SHRs, three doses were administered 12 hours apart at either 3.0, 10, 30, or 100 mg/kg, and tissue was harvested six hours after the third dose. Nepicastat caused a significant dose dependent decrease in norepinephrine (10 mg/kg) and increase in dopamine (3.0 mg/kg) and the dopamine/norepinephrine ratio (3.0 mg/kg) in the left ventricle and mesenteric artery. The effects of nepicastat on dopamine and norepinephrine concentrations, and the dopamine/norepinephrine ratio in the cerebral cortex were significant only at 30 and 100 mg/kg.\nThe purpose of this study was to determine the 24 hours time course of the effects of nepicastat (10 mg/kg) on dopamine and norepinephrine levels in the mesenteric artery following a single oral dose in spontaneously hypertensive rats. Catecholamine levels were measured at 1, 2, 4, 6, 8, 12, 16, and 24 hours after a single oral administration of either nepicastat (10 mg/kg) or vehicle (dH2O; 10 ml/kg).\nSixteen-17 week old, male spontaneous hypertensive rats (SHRs) weighing 300-400 grams were allowed food and water ad libitum. Animals were weighed and randomly assigned, the afternoon before the study, to one of the following treatment groups (n=9 per group): a single oral administration of nepicastat at 10 mg/kg or a single oral administration of vehicle (10 ml/kg) to be sacrificed at 1, 2, 4, 6, 8, 12, 16, or 24 hours.\nAnimals were dosed […] the morning of sacrifice. At 1, 2, 4, 6, 8, 12, 16 and 24 hours following administration, 9 treated animals and 9 vehicle animals were anesthetized with halothane, decapitated, and the left ventricle and mesenteric artery were rapidly harvested and weighed. The mesenteric artery was put in 0.5 ml of 0.4M perchloric acid in a centrifuge tube and the left ventricle put into an empty cryotube. Both tissues were immediately frozen in liquid nitrogen and stored at −70° C. Mesenteric artery catecholamine levels were determined using HPLC with electrochemical detection. At the time of decapitation, plasma samples were taken by draining blood from the carcass into a tube containing heparin, and centrifuging at 4° C.\nEach treatment group was compared to vehicle at each time point. A two way analysis of variance (ANOVA) with effects TRT, HARVEST and their interaction was performed. A one way ANOVA with factor TRT was performed for each harvest time. Pairwise analyses between treated and vehicle animals, at each time point, were carried out using Fisher's LSD strategy to control the experiment-wise error rate. […] Levels were marginally (0.05<p<0.1) lower at the 6 hour time point."}}, "note": "“Also recorded” adds a separate entry of the source."}
{"smiles": "Cl.NCc1c[nH]c(=S)n1[C@H]1CCc2c(F)cc(F)cc2C1", "note": "[nepicastat, (S)-5-Aminomethyl-1-(5,7-difluoro-1,2,3,4-tetrahydronaphth-2-yl)-2,3-dihydro-2-thioxo-1H-imidazole hydrochloride]", "values": [{"measurement": "heart rate vs vehicle", "setting": "[1]; SCH-23390 200 μg/kg iv", "value": "did not decrease the heart rate as much as observed in vehicle treated animals"}, {"measurement": "mean arterial pressure", "setting": "[1]", "value": "significant decrease (p<0.05) in mean arterial pressure"}, {"measurement": "time post dose by which MAP decrease was significant", "setting": "[1]", "value": "≤ 30", "unit": "min"}, {"measurement": "antihypertensive effect of nepicastat after pretreatment with SCH-23390", "setting": "[1]; SCH-23390 iv, hydrochloride", "value": "not attenuated; also recorded: did not significantly attenuate"}, {"measurement": "duration of increase in dopamine/norepinephrine ratio", "setting": "[2]; 10 mg/kg, mesenteric artery", "value": 12, "unit": "h"}, {"measurement": "duration of increase in dopamine/norepinephrine ratio", "setting": "[2]; 30 mg/kg, left ventricle", "value": 24, "unit": "h"}, {"measurement": "time at which increase in dopamine/norepinephrine ratio was significant", "setting": "[2]; 10 or 30 mg/kg oral", "value": 1, "unit": "h"}, {"measurement": "doses inhibiting DBH", "setting": "[2]; cerebral cortex of rats", "value": "60 to 100", "unit": "mg/kg/day"}, {"measurement": "dose with significant change in dopamine/norepinephrine ratio", "setting": "[2]; cerebral cortex", "value": 10, "unit": "mg/kg"}, {"measurement": "oral dose with significant evidence for DBH inhibition", "setting": "[2]; heart and mesenteric artery, rats", "value": 6, "unit": "mg/kg/day"}, {"measurement": "doses inhibiting DBH", "setting": "[2]; left ventricle and mesenteric artery of rats", "value": "1 to 6", "unit": "mg/kg/day"}, {"measurement": "dose with significant change in dopamine/norepinephrine ratio", "setting": "[2]; left ventricle", "value": 3.0, "unit": "mg/kg"}, {"measurement": "dopamine/norepinephrine ratio vs vehicle", "setting": "[2]; mesenteric artery, 10 mg/kg po, 1, 2, 4, 6 and 12 hour", "value": "significantly (p<0.05) greater"}, {"measurement": "dopamine levels vs vehicle", "setting": "[2]; mesenteric artery, 10 mg/kg po, 2 and 6 hr", "value": "significantly (p<0.05) higher"}, {"measurement": "norepinephrine, dopamine and ratio", "setting": "[2]; mesenteric artery, 10 mg/kg po, 16 and 24 h harvest", "value": "no changes in any of the three parameters"}, {"measurement": "dose with significant change in dopamine/norepinephrine ratio", "setting": "[2]; mesenteric artery", "value": 0.3, "unit": "mg/kg"}, {"measurement": "norepinephrine vs vehicle", "setting": "[2]; mesenteric artery, single 10 mg/kg po, 1-24 h", "value": "significantly (p<0.05) lower than vehicle only at the 4 hr time point"}]}
